ChEMBL document CHEMBL3112396, “Synthesis of aminoalkyl-substituted coumarin derivatives as acetylcholinesterase inhibitors” (Bioorg Med Chem, 2014)
Active and inactive are the calls of the source. The rule behind the calls is not given here.

Columns and labels:
[1] = system: Mus musculus; assay: Memory enhancing effect in ICR mouse assessed as reversal of scopolamine-induced amnesia by measuring step-through latencies at 1 mg/kg, po administered 1 hr prior to acquisition trial measured after 24 hrs by passive avoidance test relative to control; format: functional, organism-based; parameters: dose 1 mg/kg
[2] = molecular target: T1, Acetylcholinesterase (Mus musculus, UniProt P21836); assay: Inhibition of ICR mouse brain AChE using acetylthiocholine iodide as substrate incubated 10 mins prior to substrate addition measured after 10 mins by Ellman's method
T1 sequence (P21836 whole entry): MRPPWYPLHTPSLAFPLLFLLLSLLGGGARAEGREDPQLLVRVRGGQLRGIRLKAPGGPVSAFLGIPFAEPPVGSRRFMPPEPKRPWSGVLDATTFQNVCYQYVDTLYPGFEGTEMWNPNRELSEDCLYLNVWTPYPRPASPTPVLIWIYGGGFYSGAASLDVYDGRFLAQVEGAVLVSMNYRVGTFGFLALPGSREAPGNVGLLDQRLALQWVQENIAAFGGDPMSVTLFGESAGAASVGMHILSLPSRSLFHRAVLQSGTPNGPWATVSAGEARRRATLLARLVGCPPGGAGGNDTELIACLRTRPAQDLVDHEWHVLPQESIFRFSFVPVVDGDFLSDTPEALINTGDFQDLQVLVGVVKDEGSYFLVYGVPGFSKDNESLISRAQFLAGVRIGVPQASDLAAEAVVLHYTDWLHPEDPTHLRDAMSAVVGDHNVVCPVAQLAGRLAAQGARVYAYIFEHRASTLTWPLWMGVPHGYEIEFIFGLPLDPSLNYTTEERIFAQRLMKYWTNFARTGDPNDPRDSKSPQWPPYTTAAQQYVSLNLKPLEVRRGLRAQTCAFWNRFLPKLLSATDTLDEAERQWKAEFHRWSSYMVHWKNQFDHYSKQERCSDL

[3] = system: Mus musculus; assay: Memory enhancing effect in ICR mouse assessed as reversal of scopolamine-induced amnesia by measuring step-through latencies at 0.5 to 5 mg/kg, po after 1 hr by passive avoidance test; format: functional, organism-based
[4] = system: Mus musculus; assay: Memory enhancing effect in ICR mouse assessed as reversal of scopolamine-induced amnesia by measuring step-through latencies at 0.25 to 5 mg/kg, po administered 1 hr prior to acquisition trial measured after 24 hrs by passive avoidance test; format: functional, organism-based
[5] = system: Mus musculus; assay: Memory enhancing effect in ICR mouse assessed as reversal of scopolamine-induced amnesia by measuring step-through latencies at 2 mg/kg, po administered 1 hr prior to acquisition trial measured after 24 hrs by passive avoidance test relative to control; format: functional, organism-based; parameters: dose 2 mg/kg

Structure (SMILES)	IC50 [2] [µM]	also measured
COc1ccc2c3c1O[C@H]1C[C@@H](O)C=C[C@@]31CCN(C)C2	–	Activity [1]: Active
COc1cc2ccc(=O)oc2cc1O [SCOPOLETIN]	476	–
CC(C)NCCCOc1cc2ccc(=O)oc2cc1O	27	–
O=c1ccc2cc(OCCN3CCCCC3)c(O)cc2o1	12.2	–
O=c1ccc2cc(OCCCN3CCCC3)c(O)cc2o1	2.87	Activity [1]: Active; Activity [3]: inactive; Activity [4]: Active
CCN(CC)CCOc1cc2ccc(=O)oc2cc1O	18.7	–
CCN(CC)CCCOc1cc2ccc(=O)oc2cc1O	30.5	–
O=c1ccc2cc(OCCCN3CCCCC3)c(O)cc2o1	19.1	–
O=c1ccc2cc(OCCN3CCCC3)c(O)cc2o1	6.85	Activity [3]: inactive; Activity [4]: Active; Activity [5]: Active
